Experiments:
[1] = target: T1, HSPDE4A4-EGFP (Homo sapiens, UniProt P27815); experiment: Spot formation in CHO cells transfected with HSPDE4A4-EGFP; type: cell-based; details: for cells with spots: clonal
T1 construct: expressed in transfected cells

[2] = target: T2, HSPDE4A1-EGFP (Homo sapiens, UniProt P27815); experiment: Competitive assay: reversal of Rolipram-induced spot dispersal, HSPDE4A1-EGFP CHO cells; type: cell-based; details: yes/no
T2 construct: the ca. 1.95 kb coding region of HSPDE4A1 (GenBank Acc.no. U97584) is amplified; expressed in transfected cells
T2 sequence (P27815 1-647 isoform P27815-4): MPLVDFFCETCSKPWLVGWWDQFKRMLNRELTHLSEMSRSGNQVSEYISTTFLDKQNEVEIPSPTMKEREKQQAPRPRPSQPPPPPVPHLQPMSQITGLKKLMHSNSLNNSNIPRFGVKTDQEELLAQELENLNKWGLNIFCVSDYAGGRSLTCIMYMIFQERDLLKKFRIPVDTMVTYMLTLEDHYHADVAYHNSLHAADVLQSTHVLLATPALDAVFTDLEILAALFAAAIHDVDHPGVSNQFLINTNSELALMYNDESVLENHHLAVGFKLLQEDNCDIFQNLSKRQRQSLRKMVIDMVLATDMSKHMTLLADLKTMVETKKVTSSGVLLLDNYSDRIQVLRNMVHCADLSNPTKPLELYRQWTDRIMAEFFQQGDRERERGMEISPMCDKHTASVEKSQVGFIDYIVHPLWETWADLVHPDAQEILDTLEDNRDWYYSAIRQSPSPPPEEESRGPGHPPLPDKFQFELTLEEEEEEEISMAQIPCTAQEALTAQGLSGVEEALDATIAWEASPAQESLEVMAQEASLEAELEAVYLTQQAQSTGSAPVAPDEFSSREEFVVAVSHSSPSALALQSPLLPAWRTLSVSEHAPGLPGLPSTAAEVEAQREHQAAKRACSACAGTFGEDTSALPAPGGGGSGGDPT

T1 sequence (P27815 whole entry): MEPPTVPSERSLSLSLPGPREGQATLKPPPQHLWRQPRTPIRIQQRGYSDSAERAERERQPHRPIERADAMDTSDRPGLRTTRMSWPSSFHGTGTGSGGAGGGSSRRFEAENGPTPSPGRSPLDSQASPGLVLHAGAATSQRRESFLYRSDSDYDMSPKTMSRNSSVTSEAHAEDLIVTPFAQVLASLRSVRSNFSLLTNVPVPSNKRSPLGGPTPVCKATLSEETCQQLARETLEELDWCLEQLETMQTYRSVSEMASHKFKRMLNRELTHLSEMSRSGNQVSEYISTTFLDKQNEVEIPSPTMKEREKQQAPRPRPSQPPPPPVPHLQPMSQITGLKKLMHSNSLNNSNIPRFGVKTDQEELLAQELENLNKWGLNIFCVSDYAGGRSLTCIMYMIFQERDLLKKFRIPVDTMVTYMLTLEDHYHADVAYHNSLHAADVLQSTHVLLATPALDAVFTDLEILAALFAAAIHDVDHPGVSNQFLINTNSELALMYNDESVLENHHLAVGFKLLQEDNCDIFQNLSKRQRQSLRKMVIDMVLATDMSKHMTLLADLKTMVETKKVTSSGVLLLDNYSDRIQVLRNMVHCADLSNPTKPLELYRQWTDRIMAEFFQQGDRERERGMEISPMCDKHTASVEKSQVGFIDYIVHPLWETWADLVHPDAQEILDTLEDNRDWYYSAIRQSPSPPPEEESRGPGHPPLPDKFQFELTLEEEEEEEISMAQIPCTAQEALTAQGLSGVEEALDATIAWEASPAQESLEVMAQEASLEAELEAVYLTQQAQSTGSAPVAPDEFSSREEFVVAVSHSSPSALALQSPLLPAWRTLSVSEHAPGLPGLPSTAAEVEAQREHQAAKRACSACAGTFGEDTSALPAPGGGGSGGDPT

**Q.** O=c1c2cccnc2n(-c2cccc([N+](=O)[O-])c2)c(=O)n1Cc1ccncc1 [RS25344] was tested. Which cells with spots ([1]; 0.03 μM RS25344, 24.5 hours) did it give?
**A.** Its cells with spots is “about 40%”.

**Q.** What about the cells with spots ([1]; 0.03 μM RS25344, 24.5 hours, listed as RS 25344) of the same molecule?
**A.** The cells with spots was “approximately 40%”.

**Q.** And the cells with spots ([1]; 1 μM RS25344, 24.5 hours)?
**A.** The cells with spots was “more than 95%”.

**Q.** What about the EC50 ([1]; clonal CHO, 23.5 hours, 4-parameter Hill fit, read-out: EC50 spot formation (spots per cell)) of the same molecule?
**A.** Its EC50 is 17 nM.

**Q.** And the “Formation of PDE4A4 spots” value ([1]; yes/no)?
**A.** The value was “yes”.

**Q.** What about the “Reversal of Rolipram-induced removal of PDE4A1 spots” value [2] of the same molecule?
**A.** The value was “no”.
